In brackets after ≈: the same amount, converted by molar mass. Activity calls are given as the source filed them. The calls are words filed in the database; no cut-off is given here.
Columns and labels:
Staphylococcus aureus [1] = assay: Disruption of preformed biofilm in Staphylococcus aureus ATCC29213 assessed as residual preformed biofilm at 12.5 ug/mL incubated for 24 hrs by crystal violet staining based analysis relative to control; type: functional; details: dose 12.5 µg/ml
Candida albicans [2] = assay: Induction of drug resistance in Candida albicans ATCC10231 assessed as change in MIC at sub-inhibitory concentration incubated for 21 to 22 passages; type: functional
Acinetobacter baumannii [3] = assay: Antimicrobial activity against Acinetobacter baumannii ATCC17978 assessed as bacterial growth inhibition incubated for 24 hrs in presence of 3220 ug/mL Na+ by Muller Hinton broth based dilution assay; type: functional
[4] = Cytotoxicity against mouse corneal epithelial cells assessed as viable cells at 6.25 ug/mL incubated for 24 hrs by CCK-8 assay relative to control; type: toxicity, cell-based, Corneal epithelial cell; details: at 6.25 µg/mL, read-out: Activity
[5] = Cytotoxicity against mouse NCTC clone 929 cells assessed as viable cells at 6.25 ug/mL incubated for 24 hrs by CCK-8 assay relative to control; type: toxicity, cell-based; details: NCTC clone 929 (L929) cells, at 6.25 µg/mL, read-out: Activity
Staphylococcus aureus [6] = assay: Antimicrobial activity against Staphylococcus aureus ATCC29213 assessed as bacterial growth inhibition incubated for 24 hrs in presence of 24.3 ug/mL Mg2+ by Muller Hinton broth based dilution assay; type: functional
Staphylococcus aureus [7] = assay: Antimicrobial activity against methicillin-resistant Staphylococcus aureus NCTC10442 assessed as bacterial growth inhibition incubated for 24 hrs in presence of 24.3 ug/mL Mg2+ by Muller Hinton broth based dilution assay; type: functional
Candida albicans [8] = assay: Antimicrobial activity against Candida albicans CMCC98001 assessed as fungal growth inhibition incubated for 48 hrs in presence of 100 ug/mL Ca2+ by Sabouraud Dextrose broth based dilution assay; type: functional
Escherichia coli [9] = assay: Antimicrobial activity against Escherichia coli ATCC25922 assessed as bacterial growth inhibition incubated for 24 hrs by Muller Hinton broth based dilution assay; type: functional
Candida albicans [10] = assay: Antimicrobial activity against Candida albicans ATCC10231 assessed as fungal growth inhibition incubated for 48 hrs in presence of 175.5 ug/mL K+ by Sabouraud Dextrose broth based dilution assay; type: functional
Escherichia coli [11] = assay: Antibiofilm activity against Escherichia coli ATCC25922 assessed as inhibition of biofilm formation at 0.78 ug/mL incubated for 24 hrs by crystal violet staining based analysis relative to control; type: functional
[12] = Cytotoxicity against mouse J774.A1 cells assessed as viable cells at 25 ug/mL incubated for 24 hrs by CCK-8 assay relative to control; type: toxicity, cell-based; details: at 25 µg/mL, read-out: Activity
Escherichia coli [13] = assay: Antibiofilm activity against Escherichia coli ATCC25922 assessed as inhibition of biofilm formation at 6.25 ug/mL incubated for 24 hrs by crystal violet staining based analysis relative to control; type: functional
Acinetobacter baumannii [14] = assay: Antimicrobial activity against Acinetobacter baumannii ATCC17978 assessed as bacterial growth inhibition incubated for 24 hrs by Muller Hinton broth based dilution assay; type: functional
Staphylococcus aureus [15] = assay: In vivo antibacterial activity against Staphylococcus aureus ATCC29213 infected in cyclophosphamide immunosuppressed keratitis C57BL/6 mouse model assessed as log reduction in bacterial load at 0.5 % administered topically 4 times per day for 3 days; type: functional; details: time 3 day
[16] = Cytotoxicity against mouse J774.A1 cells assessed as viable cells at 6.25 ug/mL incubated for 24 hrs by CCK-8 assay relative to control; type: toxicity, cell-based; details: at 6.25 µg/mL, read-out: Activity
Staphylococcus aureus [17] = assay: Disruption of preformed biofilm in Staphylococcus aureus ATCC29213 assessed as residual preformed biofilm at 0.39 ug/mL incubated for 24 hrs by crystal violet staining based analysis relative to control; type: functional; details: dose 0.39 µg/ml
Staphylococcus aureus [18] = assay: Antimicrobial activity against methicillin-resistant Staphylococcus aureus NCTC10442 assessed as bacterial growth inhibition incubated for 24 hrs in presence of 175.5 ug/mL K+ by Muller Hinton broth based dilution assay; type: functional
Staphylococcus aureus [19] = assay: Antimicrobial activity against methicillin-resistant Staphylococcus aureus NCTC10442 assessed as bacterial growth inhibition incubated for 24 hrs in presence of 3220 ug/mL Na+ by Muller Hinton broth based dilution assay; type: functional
[20] = Cytotoxicity against mouse NCTC clone 929 cells assessed as viable cells at 50 ug/mL incubated for 24 hrs by CCK-8 assay relative to control; type: toxicity, cell-based; details: NCTC clone 929 (L929) cells, at 50 µg/mL, read-out: Activity
Staphylococcus aureus [21] = assay: Antibiofilm activity against Staphylococcus aureus ATCC29213 assessed as inhibition of biofilm formation at 0.78 ug/mL incubated for 24 hrs by crystal violet staining based analysis relative to control; type: functional
[22] = Cytotoxicity against mouse corneal epithelial cells assessed as viable cells at 25 ug/mL incubated for 24 hrs by CCK-8 assay relative to control; type: toxicity, cell-based, Corneal epithelial cell; details: at 25 µg/mL, read-out: Activity
Staphylococcus aureus [23] = assay: Disruption of preformed biofilm in Staphylococcus aureus ATCC29213 assessed as residual preformed biofilm at 3.125 ug/mL incubated for 24 hrs by crystal violet staining based analysis relative to control; type: functional; details: dose 3.125 µg/ml
Escherichia coli [24] = assay: Antimicrobial activity against Escherichia coli ATCC25922 assessed as bacterial growth inhibition incubated for 24 hrs in presence of 3220 ug/mL Na+ by Muller Hinton broth based dilution assay; type: functional
Escherichia coli [25] = assay: Antimicrobial activity against Escherichia coli ATCC25922 assessed as bacterial growth inhibition incubated for 24 hrs in presence of 100 ug/mL Ca2+ by Muller Hinton broth based dilution assay; type: functional
Escherichia coli [26] = assay: Disruption of preformed biofilm in Escherichia coli ATCC25922 assessed as residual preformed biofilm at 25 ug/mL incubated for 24 hrs by crystal violet staining based analysis relative to control; type: functional; details: dose 25 µg/ml
Staphylococcus aureus [27] = assay: Disruption of preformed biofilm in Staphylococcus aureus ATCC29213 assessed as residual preformed biofilm at 6.25 ug/mL incubated for 24 hrs by crystal violet staining based analysis relative to control; type: functional; details: dose 6.25 µg/ml
Candida albicans [28] = assay: Antimicrobial activity against Candida albicans ATCC10231 assessed as fungal growth inhibition incubated for 48 hrs in presence of 100 ug/mL Ca2+ by Sabouraud Dextrose broth based dilution assay; type: functional
[29] = Cytotoxicity against mouse NCTC clone 929 cells assessed as viable cells at 12.5 ug/mL incubated for 24 hrs by CCK-8 assay relative to control; type: toxicity, cell-based; details: NCTC clone 929 (L929) cells, at 12.5 µg/mL, read-out: Activity
Cell membrane [30] = assay: Disruption of membrane integrity in Candida albicans ATCC10231 assessed as red fluorescence at 8 times of MIC incubated for 2 hrs under dark condition by SYTO 9 and PI staining based laser confocal microscopy analysis
Acinetobacter baumannii [31] = assay: Antimicrobial activity against Acinetobacter baumannii R2889 assessed as bacterial growth inhibition incubated for 24 hrs by Muller Hinton broth based dilution assay; type: functional
Cell membrane [32] = assay: Disruption of membrane integrity in Staphylococcus aureus ATCC29213 assessed as increase in fluorescence intensity at 1 to 8 times of MIC measured for 1 hr by SYTOX green dye based fluorescence analysis
Candida albicans [33] = assay: Antimicrobial activity against Candida albicans ATCC10231 assessed as fungal growth inhibition incubated for 48 hrs by Sabouraud Dextrose broth based dilution assay; type: functional

SMILES | Activity (Staphylococcus aureus [1]) | Activity (Candida albicans [2]) | MIC (Acinetobacter baumannii [3]) | viability at 24 h, 6.25 ug/mL [4] | viability at 24 h, 6.25 ug/mL [5] | MIC (Staphylococcus aureus [6]) | MIC (Staphylococcus aureus [7]) | MIC (Candida albicans [8]) | MIC (Escherichia coli [9]) | MIC (Candida albicans [10]) | inhibition at 0.78 µg/mL (Escherichia coli [11]) | viability at 24 h, 25 ug/mL [12] | inhibition at 6.25 µg/mL (Escherichia coli [13]) | MIC (Acinetobacter baumannii [14]) | log(activity) (Staphylococcus aureus [15]) | viability at 24 h, 6.25 ug/mL [16] | Activity (Staphylococcus aureus [17]) | MIC (Staphylococcus aureus [18]) | MIC (Staphylococcus aureus [19]) | viability at 24 h, 50 ug/mL [20] | further results
CC(C)=CCN1CCCc2cc(OCCCCCCCCNC(=N)N)ccc21 | 7.12% | inactive | 3.12 µg/mL | 93.6% | 91.2% | 0.78 µg/mL | 0.78 µg/mL | 1.56 µg/mL | 3.12 µg/mL (≈ 8.08 µM) | 0.78 µg/mL | 32.2% | 58.8% | 101% | 3.12 µg/mL (≈ 8.08 µM) | 6.3 | 96.3% | 80.76% | 0.78 µg/mL | 0.78 µg/mL | 29.9% | inhibition at 0.78 µg/mL (Staphylococcus aureus [21]): 93.6%; viability at 24 h, 25 ug/mL [22]: 76.9%; Activity (Staphylococcus aureus [23]): 29.55%; MIC (Escherichia coli [24]): 3.12 µg/mL; MIC (Escherichia coli [25]): 3.12 µg/mL; Activity (Escherichia coli [26]): 4.34%; Activity (Staphylococcus aureus [27]): 10.5%; MIC (Candida albicans [28]): 1.56 µg/mL; viability at 24 h, 12.5 ug/mL [29]: 89.3%; Activity (Cell membrane [30]): Active; MIC (Acinetobacter baumannii [31]): 3.12 µg/mL (≈ 8.08 µM); Activity (Cell membrane [32]): Dose-Dependent Effect; MIC (Candida albicans [33]): 0.78 µg/mL (≈ 2.02 µM)
CCCCCCCCCN1CCCc2cc(OCCCCNC(=N)N)ccc21 | 0.3% | inactive | 3.12 µg/mL | 88.9% | 92.1% | 0.78 µg/mL | 0.78 µg/mL | 1.56 µg/mL | 1.56 µg/mL (≈ 4.01 µM) | 1.56 µg/mL | 49.9% | 72.6% | 100% | 1.56 µg/mL (≈ 4.01 µM) | 6.6 | 97.4% | 81.8% | 0.78 µg/mL | 0.78 µg/mL | 23.7% | inhibition at 0.78 µg/mL (Staphylococcus aureus [21]): 91%; viability at 24 h, 25 ug/mL [22]: 57.7%; Activity (Staphylococcus aureus [23]): 10.76%; MIC (Escherichia coli [24]): 1.56 µg/mL; MIC (Escherichia coli [25]): 3.12 µg/mL; Activity (Escherichia coli [26]): 1.67%; Activity (Staphylococcus aureus [27]): 4.69%; MIC (Candida albicans [28]): 1.56 µg/mL; viability at 24 h, 12.5 ug/mL [29]: 89.4%; Activity (Cell membrane [30]): Active; MIC (Acinetobacter baumannii [31]): 3.12 µg/mL (≈ 8.04 µM); Activity (Cell membrane [32]): Dose-Dependent Effect; MIC (Candida albicans [33]): 1.56 µg/mL (≈ 4.01 µM)

Reference: ChEMBL document CHEMBL5352419, “Design, synthesis, and biological evaluation of tetrahydroquinoline amphiphiles as membrane-targeting antimicrobials against pathogenic bacteria and fungi” (Eur J Med Chem, 2022)
